Measured values published in patent publication US12668594B2, “TYK2 inhibitors and uses thereof” (Sudo Biosciences Limited, priority 2020, dated 2026).

Tests used:
TYK2-JH1 = molecular target: T1, TYK2-JH1 (Homo sapiens, UniProt P29597); experiment: HTRF-based selectivity assay, TYK2 catalytic domain; type: biochemical; conditions: kinase domain (JH1), ATP 20 μM
T1 construct: recombinant purified His or GST-tagged catalytic domain for each enzyme; made in house
T1 sequence (P29597 897-1176 limits assumed): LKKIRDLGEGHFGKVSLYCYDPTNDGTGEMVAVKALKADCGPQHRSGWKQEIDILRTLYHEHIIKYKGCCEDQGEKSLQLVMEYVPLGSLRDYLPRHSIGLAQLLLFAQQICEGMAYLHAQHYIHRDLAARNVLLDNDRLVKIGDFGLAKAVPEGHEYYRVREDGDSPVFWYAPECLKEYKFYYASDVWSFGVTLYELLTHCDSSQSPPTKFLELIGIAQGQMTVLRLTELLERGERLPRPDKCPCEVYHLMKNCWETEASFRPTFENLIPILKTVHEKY
Experimental: (§1) The ability of compounds to inhibit the activity of JAK1, JAK2, JAK3 and TYK2 is measured using a recombinant purified His or GST-tagged catalytic domain for each enzyme (JAK1, JAK2 and TYK2 are generated in-house; JAK3 was purchased from Carna biosciences, Cat #08-046) in an HTRF format biochemical assay. The reactions employs a commercial peptide substrate from Cisbio (Cat #62TK0PEC). The basic assay protocol is as follows: first, 2.5 µL of diluted compounds (4×) in DMSO are dispensed into a 384-well Optiplate. Next, 2.5 μL of enzyme (final concentrations for enzymes are: TYK2-700 ng/mL, JAK1-80.6 ng/mL, JAK2-2.1 ng/mL and JAK3-171.8 ng/mL) is added and incubated at RT for 5-20 min. Finally, 5 μl of mixture of 2×ATP [Final concentration 20 μM for TYK2, 21.43 μM for JAK1, 14.7 μM for JAK2 and 2.12 μM for JAK3]+2× Substrate [Final concentration 217 nM for TYK2, 454.7 nM for JAK1, 200 nM for JAK2 and 257.4 nM for JAK3] is added to 384 well Optiplate. Composition of Kinase assay buffer used in the assay is as follows: HEPES 50 mM, EGTA 1 mM, MgCl2 10 mM, DTT2 mM, Tween-20 0.010 and water. Then the plates are shaken and then incubated at 26.5° C. for 60 min. At the end of the incubation, 10 μL of mixture of 2× detection mix [(EU3+Cryptate (1×)+Streptavidin-XL665 (final concentration: 62.5 nM) (HTRF KinEASE-TK kit Cat #62TK0PEC)] is added to the assay plate, shaken and incubated at 26.5° C. for 60 min. Plates are then read on a Perkin Elmer Envision for HTRF signal (665 nm reading/615 nm reading). After normalization to untreated controls, the percent inhibition of the HTRF signal at each compound concentration is calculated. The plot of percent inhibition versus the log of compound concentration is fit with a 4-parameter dose response equation to calculate IC50 values.

IL-2 = experiment: Selectivity assay (SEAP) IL-2 reporter cells; type: cell-based; conditions: Homo sapiens, IL-2 reporter cells on HEK293 background, read-out: Selectivity assays (SEAP) nM or E-Max % IL-2
TYK2 [1] = molecular target: T2, TYK2 (Homo sapiens, UniProt P29597); experiment: HEK-Blue IL-23 reporter assay (SEAP) for TYK2 pseudokinase inhibition; type: cell-based; parameters: HEK-Blue™ IL-23 and IFNα/β cells with a stably-integrated cytokine receptor and STAT3 or STAT1; host or cells: HEK-Blue IL-23 / HEK-Blue IFNα/β cells (HEK293 background); conditions: HEK-Blue IL-23 cells, 10 ng/mL human recombinant IL-23, SEAP reporter; read-out: IL23 IC50
Procedure, shortened: (§2)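 HEK-Blue cells carrying cytokine receptor and STAT3 or STAT1 SEAP reporter, pretreated 60 min with compound, then stimulated with 10 ng/mL IL-23 (22–24 h) or 1 ng/mL IFNα (16–18 h). SEAP read with QUANTI-Blue; IC50 by non-linear regression versus no-inhibitor and unstimulated controls.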

JAK3-JH1 = molecular target: T3, JAK3-JH1 (Homo sapiens, UniProt P52333); experiment: HTRF-based selectivity assay, JAK3 catalytic domain; type: biochemical; conditions: kinase domain (JH1), ATP 2.12 μM
T3 construct: recombinant purified His or GST-tagged catalytic domain for each enzyme; purchased Carna biosciences 08-046
Experimental: as §1

JAK2-JH1 = molecular target: T4, JAK2-JH1 (Homo sapiens, UniProt O60674); experiment: HTRF-based selectivity assay, JAK2 catalytic domain; type: biochemical; conditions: kinase domain (JH1), ATP 14.7 μM
T4 construct: recombinant purified His or GST-tagged catalytic domain for each enzyme; made in house
Experimental: as §1

JAK1-JH1 = molecular target: T5, JAK1-JH1 (Homo sapiens, UniProt P23458); experiment: HTRF-based selectivity assay, JAK1 catalytic domain; type: biochemical; conditions: kinase domain (JH1), ATP 21.43 μM
T5 construct: recombinant purified His or GST-tagged catalytic domain for each enzyme; made in house
Experimental: as §1

TYK2 [2] = molecular target: T2, TYK2; experiment: HEK-Blue IFNα/β reporter assay (SEAP) for TYK2 pseudokinase inhibition; type: cell-based; conditions: HEK-Blue IFNα/β cells, 1 ng/mL human recombinant IFNα
Procedure, shortened: as §2

IFN-γ = experiment: Selectivity assay (SEAP) IFN-γ reporter cells; type: cell-based; conditions: Homo sapiens, IFN-γ reporter cells on HEK293 background, read-out: Selectivity assays (SEAP) nM or E-Max % IFN-γ

T5 sequence (P23458 875-1153 limits assumed): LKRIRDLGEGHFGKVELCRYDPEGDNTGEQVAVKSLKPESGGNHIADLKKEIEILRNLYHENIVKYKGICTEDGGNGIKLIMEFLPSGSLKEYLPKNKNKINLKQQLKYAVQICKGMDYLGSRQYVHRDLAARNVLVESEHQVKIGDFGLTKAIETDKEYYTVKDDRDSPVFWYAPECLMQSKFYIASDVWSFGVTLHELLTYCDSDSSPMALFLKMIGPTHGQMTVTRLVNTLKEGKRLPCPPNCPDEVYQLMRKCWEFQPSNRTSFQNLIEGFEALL
T2 sequence (P29597 whole entry): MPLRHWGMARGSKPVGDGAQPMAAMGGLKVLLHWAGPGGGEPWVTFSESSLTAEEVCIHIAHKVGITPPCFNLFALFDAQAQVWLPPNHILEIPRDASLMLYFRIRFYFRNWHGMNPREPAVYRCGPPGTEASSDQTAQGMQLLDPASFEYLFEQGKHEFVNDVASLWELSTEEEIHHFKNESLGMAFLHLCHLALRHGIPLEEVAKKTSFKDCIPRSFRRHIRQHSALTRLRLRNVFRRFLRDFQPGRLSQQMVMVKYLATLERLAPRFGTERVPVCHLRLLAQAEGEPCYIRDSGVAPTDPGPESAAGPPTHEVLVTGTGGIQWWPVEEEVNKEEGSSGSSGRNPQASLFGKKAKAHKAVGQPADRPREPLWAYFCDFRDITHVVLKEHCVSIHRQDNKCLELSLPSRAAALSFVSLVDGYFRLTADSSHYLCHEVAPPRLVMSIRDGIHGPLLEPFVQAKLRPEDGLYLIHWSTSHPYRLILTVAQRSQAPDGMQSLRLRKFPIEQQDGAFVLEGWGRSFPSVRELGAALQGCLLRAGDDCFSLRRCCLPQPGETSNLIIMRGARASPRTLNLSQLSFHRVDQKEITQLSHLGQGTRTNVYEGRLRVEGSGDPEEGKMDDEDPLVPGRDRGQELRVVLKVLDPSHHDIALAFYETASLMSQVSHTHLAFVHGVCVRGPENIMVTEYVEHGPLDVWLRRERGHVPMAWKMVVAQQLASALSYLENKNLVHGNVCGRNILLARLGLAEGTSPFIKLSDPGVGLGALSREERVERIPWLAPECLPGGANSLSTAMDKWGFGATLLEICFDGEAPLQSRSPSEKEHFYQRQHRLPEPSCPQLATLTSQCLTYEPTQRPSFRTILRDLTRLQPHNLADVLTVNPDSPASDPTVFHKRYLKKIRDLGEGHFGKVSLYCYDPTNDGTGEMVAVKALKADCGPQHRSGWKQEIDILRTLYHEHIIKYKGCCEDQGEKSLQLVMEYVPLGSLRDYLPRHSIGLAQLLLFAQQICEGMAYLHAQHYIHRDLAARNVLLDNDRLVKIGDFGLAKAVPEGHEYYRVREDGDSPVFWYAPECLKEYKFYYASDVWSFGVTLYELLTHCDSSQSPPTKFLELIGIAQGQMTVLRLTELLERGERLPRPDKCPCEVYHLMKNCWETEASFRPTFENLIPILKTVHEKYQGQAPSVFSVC
T4 sequence (O60674 849-1124 limits assumed): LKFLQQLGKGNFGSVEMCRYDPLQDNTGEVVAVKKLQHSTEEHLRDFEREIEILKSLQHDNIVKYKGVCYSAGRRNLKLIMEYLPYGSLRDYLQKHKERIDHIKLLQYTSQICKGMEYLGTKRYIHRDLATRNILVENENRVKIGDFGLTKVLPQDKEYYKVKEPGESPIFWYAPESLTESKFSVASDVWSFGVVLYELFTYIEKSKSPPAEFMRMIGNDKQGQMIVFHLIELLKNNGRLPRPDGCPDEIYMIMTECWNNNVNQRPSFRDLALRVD
T3 sequence (P52333 822-1111 limits assumed): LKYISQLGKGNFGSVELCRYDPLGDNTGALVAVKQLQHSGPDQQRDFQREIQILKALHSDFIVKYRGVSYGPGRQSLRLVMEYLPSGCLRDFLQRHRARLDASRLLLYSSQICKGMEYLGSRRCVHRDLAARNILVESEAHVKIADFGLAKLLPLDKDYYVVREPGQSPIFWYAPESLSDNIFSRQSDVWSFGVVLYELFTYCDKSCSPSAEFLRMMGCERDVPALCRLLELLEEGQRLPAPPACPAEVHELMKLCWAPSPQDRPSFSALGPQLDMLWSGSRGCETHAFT

Row | SMILES | IC50 (TYK2-JH1) | IC50 (IL-2) | IC50 (TYK2 [1]) | IC50 (JAK3-JH1) | IC50 (JAK2-JH1) | IC50 (JAK1-JH1) | IC50 (TYK2 [2]) | IC50 (IFN-γ)
1 | O=c1[nH]n(-c2ccccc2)c2cc(Nc3ccc(F)cn3)ncc12 [Compound I-2, 6-((5-fluoropyridin-2-yl)amino)-1-phenyl-1,2-dihydro-3H-pyrazolo[4,3-c]pyridin-3-one] | 30 to 90 µM | > 90000 nM | < 10 µM | < 10 µM | 10 to 30 µM | 30 to 90 µM | < 10 µM | 30000 to 90000 nM
2 | COc1cccc(-n2[nH]c(=O)c3cnc(Nc4cc(C)nc(C)n4)cc32)c1F [Compound I-37, 6-((2,6-dimethylpyrimidin-4-yl)amino)-1-(2-fluoro-3-methoxyphenyl)-1,2-dihydro-3H-pyrazolo[4,3-c]pyridin-3-one] | > 90 µM | > 90000 nM | < 10 µM | > 90 µM | > 90 µM | > 90 µM | < 10 µM | > 90000 nM
3 | COc1cccc(-n2[nH]c(=O)c3cnc(Nc4ccnc(C)n4)cc32)c1 [Compound I-49, 1-(3-methoxyphenyl)-6-((2-methylpyrimidin-4-yl)amino)-1,2-dihydro-3H-pyrazolo[4,3-c]pyridin-3-one] | > 90 µM | > 90000 nM | < 10 µM | > 90 µM | > 90 µM | > 90 µM | < 10 µM | > 90000 nM
4 | Cc1cc(Nc2cc3c(cn2)c(=O)[nH]n3-c2cccc(F)c2)nc(C)n1 [Compound I-59, 6-((2,6-dimethylpyrimidin-4-yl)amino)-1-(3-fluorophenyl)-1,2-dihydro-3H-pyrazolo[4,3-c]pyridin-3-one] | > 90 µM | > 90000 nM | < 10 µM | > 90 µM | > 90 µM | > 90 µM | < 10 µM | > 90000 nM
5 | Cc1cc(Nc2cc3c(cn2)c(=O)[nH]n3-c2ccc(Cl)cc2)nc(C)n1 [Compound I-65, 1-(4-chlorophenyl)-6-((2,6-dimethylpyrimidin-4-yl)amino)-1,2-dihydro-3H-pyrazolo[4,3-c]pyridin-3-one] | > 90 µM | > 90000 nM | < 10 µM | > 90 µM | > 90 µM | > 90 µM | > 90 µM | > 90000 nM
6 | Cc1cc(Nc2cc3c(cn2)c(=O)[nH]n3-c2ccc(OC(F)(F)F)cc2)nc(C)n1 [Compound I-69, 6-((2,6-dimethylpyrimidin-4-yl)amino)-1-(4-(trifluoromethoxy)phenyl)-1,2-dihydro-3H-pyrazolo[4,3-c]pyridin-3-one] | > 90 µM | > 90000 nM | < 10 µM | > 90 µM | > 90 µM | > 90 µM | < 10 µM | > 90000 nM
7 | Cc1cc(Nc2cc3c(cn2)c(=O)[nH]n3-c2ccc(OC(F)F)cc2)nc(C)n1 [Compound I-72, 1-(4-(difluoromethoxy)phenyl)-6-((2,6-dimethylpyrimidin-4-yl)amino)-1,2-dihydro-3H-pyrazolo[4,3-c]pyridin-3-one] | > 90 µM | > 90000 nM | < 10 µM | > 90 µM | > 90 µM | > 90 µM | < 10 µM | > 90000 nM

Results, then the compound that gave them:

Row | IC50 (TYK2-JH1) | IC50 (IL-2) | IC50 (TYK2 [1]) | IC50 (JAK3-JH1) | IC50 (JAK2-JH1) | IC50 (JAK1-JH1) | IC50 (TYK2 [2]) | IC50 (IFN-γ) | SMILES
8 | > 90 µM | > 90000 nM | < 10 µM | > 90 µM | > 90 µM | > 90 µM | < 10 µM | > 90000 nM | Cc1cc(Nc2cc3c(cn2)c(=O)[nH]n3-c2ccc(OCC(F)(F)F)cc2)nc(C)n1 [Compound I-73, 6-((2,6-dimethylpyrimidin-4-yl)amino)-1-(4-(2,2,2-trifluoroethoxy)phenyl)-1,2-dihydro-3H-pyrazolo[4,3-c]pyridin-3-one]
9 | > 90 µM | > 90000 nM | < 10 µM | > 90 µM | > 90 µM | > 90 µM | < 10 µM | > 90000 nM | N#Cc1ccc(-n2[nH]c(=O)c3cnc(Nc4ccc(F)cn4)cc32)cc1Cl [Compound I-88, 2-chloro-4-(6-((5-fluoropyridin-2-yl)amino)-3-oxo-2,3-dihydro-1H-pyrazolo[4,3-c]pyridin-1-yl)benzonitrile]
10 | > 90 µM | > 90000 nM | < 10 µM | > 90 µM | > 90 µM | > 90 µM | < 10 µM | > 90000 nM | Cc1cc(Nc2cc3c(cn2)c(=O)[nH]n3-c2ccc(OC(F)(F)F)c(F)c2)nc(C)n1 [Compound I-94, 6-((2,6-dimethylpyrimidin-4-yl)amino)-1-(3-fluoro-4-(trifluoromethoxy)phenyl)-1,2-dihydro-3H-pyrazolo[4,3-c]pyridin-3-one]
11 | > 90 µM | > 90000 nM | < 10 µM | > 90 µM | > 90 µM | > 90 µM | < 10 µM | > 90000 nM | O=c1[nH]n(-c2ccc(OC(F)(F)F)c(F)c2)c2cc(Nc3ccc(F)cn3)ncc12 [Compound I-95, 1-(3-fluoro-4-(trifluoromethoxy)phenyl)-6-((5-fluoropyridin-2-yl)amino)-1,2-dihydro-3H-pyrazolo[4,3-c]pyridin-3-one]
